Key:
HCT-15 = assay: Antiproliferative activity against human HCT-15 cells assessed as cell growth inhibition at 10 uM incubated for 24 hrs by sulforhodamine B assay; format: functional; conditions: read-out: GI
MCF7 [1] = assay: Induction of apoptosis in human MCF cells assessed as necrotic cells measured after 48 hrs by Annexin-V-FITC/propidium iodide staining based flow cytometry (reference value: 0.94%); format: functional
T47D = assay: Antiproliferative activity against human T47D cells assessed as reduction in cell viability incubated for 24 hrs by sulforhodamine B assay; format: functional, cell-based
Carbonic anhydrase 9 = Carbonic anhydrase 9 (Homo sapiens, UniProt Q16790); assay: Inhibition of human CA9 preincubated for 15 mins by phenol red dye based stopped flow CO2 hydration assay
RXF 393 = assay: Antiproliferative activity against human RXF 393 cells assessed as cell growth inhibition at 10 uM incubated for 24 hrs by sulforhodamine B assay; format: functional; conditions: read-out: GI
OVCAR-4 = assay: Antiproliferative activity against human OVCAR-4 cells assessed as cell growth inhibition at 10 uM incubated for 24 hrs by sulforhodamine B assay; format: functional; conditions: read-out: GI
RPMI-8226 = assay: Antiproliferative activity against human RPMI-8226 cells assessed as cell growth inhibition at 10 uM incubated for 24 hrs by sulforhodamine B assay; format: functional; conditions: read-out: GI
OVCAR-3 = assay: Antiproliferative activity against human OVCAR-3 cells assessed as cell growth inhibition at 10 uM incubated for 24 hrs by sulforhodamine B assay; format: functional; conditions: read-out: GI
MDA-MB-231 [2] = assay: Induction of apoptosis in human MDA-MB-231 cells assessed as early apoptotic cells measured after 48 hrs by Annexin-V-FITC/propidium iodide staining based flow cytometry (reference value: 0.02%); format: functional
MDA-MB-231 [3] = assay: Induction of apoptosis in human MDA-MB-231 cells assessed as viable cells measured after 48 hrs by Annexin-V-FITC/propidium iodide staining based flow cytometry (reference value: 97.93%); format: functional
NCI/ADR-RES = assay: Antiproliferative activity against human NCI-ADR-RES cells assessed as cell growth inhibition at 10 uM incubated for 24 hrs by sulforhodamine B assay; format: functional; conditions: read-out: GI
U-251 = assay: Antiproliferative activity against human U-251 cells assessed as cell growth inhibition at 10 uM incubated for 24 hrs by sulforhodamine B assay; format: functional; conditions: read-out: GI
EKVX = assay: Antiproliferative activity against human EKVX cells assessed as cell growth inhibition at 10 uM incubated for 24 hrs by sulforhodamine B assay; format: functional; conditions: read-out: GI
MCF7 [4] = assay: Antiproliferative activity against human MCF7 cells assessed as cell growth inhibition at 10 uM incubated for 24 hrs by sulforhodamine B assay; format: functional; conditions: read-out: GI
MOLT-4 = assay: Antiproliferative activity against human MOLT-4 cells assessed as cell growth inhibition at 10 uM incubated for 24 hrs by sulforhodamine B assay; format: functional; conditions: read-out: GI
NCI-H460 = assay: Antiproliferative activity against human NCI-H460 cells assessed as cell growth inhibition at 10 uM incubated for 24 hrs by sulforhodamine B assay; format: functional; conditions: read-out: GI
LOX IMVI = assay: Antiproliferative activity against human LOX IMVI cells assessed as cell growth inhibition at 10 uM incubated for 24 hrs by sulforhodamine B assay; format: functional; conditions: read-out: GI
MDA-MB-468 = assay: Antiproliferative activity against human MDA-MB-468 cells assessed as cell growth inhibition at 10 uM incubated for 24 hrs by sulforhodamine B assay; format: functional; conditions: read-out: GI
CCRF-CEM = assay: Antiproliferative activity against human CCRF-CEM cells assessed as cell growth inhibition at 10 uM incubated for 24 hrs by sulforhodamine B assay; format: functional; conditions: read-out: GI
NCI-H522 = assay: Antiproliferative activity against human NCI-H522 cells assessed as cell growth inhibition at 10 uM incubated for 24 hrs by sulforhodamine B assay; format: functional; conditions: read-out: GI
HL-60 = assay: Antiproliferative activity against human HL-60 cells assessed as cell growth inhibition at 10 uM incubated for 24 hrs by sulforhodamine B assay; format: functional; conditions: read-out: GI
MDA-MB-231 [5] = assay: Cell cycle arrest in human MDA-MB-231 cells assessed as accumulation at G2 phase incubated for 48 hrs by propidium iodide staining based flow cytometric analysis (reference value: 20.65 %); format: functional
HCT-116 = assay: Antiproliferative activity against human HCT-116 cells assessed as cell growth inhibition at 10 uM incubated for 24 hrs by sulforhodamine B assay; format: functional; conditions: read-out: GI
NCI-H23 = assay: Antiproliferative activity against human NCI-H23 cells assessed as cell growth inhibition at 10 uM incubated for 24 hrs by sulforhodamine B assay; format: functional; conditions: read-out: GI
HCC 2998 = assay: Antiproliferative activity against human HCC 2998 cells assessed as cell growth inhibition at 10 uM incubated for 24 hrs by sulforhodamine B assay; format: functional; conditions: read-out: GI
SK-MEL-5 = assay: Antiproliferative activity against human SK-MEL-5 cells assessed as cell growth inhibition at 10 uM incubated for 24 hrs by sulforhodamine B assay; format: functional; conditions: read-out: GI
MDA-MB-231 [6] = assay: Cell cycle arrest in human MDA-MB-231 cells assessed as accumulation at G1 phase incubated for 48 hrs by propidium iodide staining based flow cytometric analysis (reference value: 55.63 %); format: functional
SK-MEL-28 = assay: Antiproliferative activity against human SK-MEL-28 cells assessed as cell growth inhibition at 10 uM incubated for 24 hrs by sulforhodamine B assay; format: functional; conditions: read-out: GI
MCF7 [7] = assay: Antiproliferative activity against human MCF7 cells assessed as reduction in cell viability incubated for 24 hrs by sulforhodamine B assay; format: functional, cell-based; conditions: MCF7, 24 h
IGROV-1 = assay: Antiproliferative activity against human IGROV-1 cells assessed as cell growth inhibition at 10 uM incubated for 24 hrs by sulforhodamine B assay; format: functional; conditions: read-out: GI
MDA-MB-231 [8] = assay: Induction of apoptosis in human MDA-MB-231 cells assessed as necrotic cells measured after 48 hrs by Annexin-V-FITC/propidium iodide staining based flow cytometry (reference value: 1.13%); format: functional
HOP-62 = assay: Antiproliferative activity against human HOP-62 cells assessed as cell growth inhibition at 10 uM incubated for 24 hrs by sulforhodamine B assay; format: functional; conditions: read-out: GI
SK-OV-3 = assay: Antiproliferative activity against human SK-OV-3 cells assessed as reduction in cell viability incubated for 24 hrs by sulforhodamine B assay; conditions: SK-OV-3, 24 h
SF-268 = assay: Antiproliferative activity against human SF-268 cells assessed as cell growth inhibition at 10 uM incubated for 24 hrs by sulforhodamine B assay; format: functional; conditions: read-out: GI
MDA-MB-231 [9] = assay: Antiproliferative activity against human MDA-MB-231 cells assessed as reduction in cell viability incubated for 24 hrs by sulforhodamine B assay; format: functional, cell-based; conditions: MDA-MB-231, 24 h
M14 = assay: Antiproliferative activity against human M14 cells assessed as cell growth inhibition at 10 uM incubated for 24 hrs by sulforhodamine B assay; format: functional; conditions: read-out: GI
Hs-578T = assay: Antiproliferative activity against human HS-578T cells assessed as cell growth inhibition at 10 uM incubated for 24 hrs by sulforhodamine B assay; format: functional; conditions: read-out: GI
BT-549 = assay: Antiproliferative activity against human BT-549 cells assessed as cell growth inhibition at 10 uM incubated for 24 hrs by sulforhodamine B assay; format: functional; conditions: read-out: GI
COLO 205 = assay: Antiproliferative activity against human COLA 205 cells assessed as reduction in cell viability incubated for 24 hrs by sulforhodamine B assay; conditions: COLO 205, 24 h
UACC-257 = assay: Antiproliferative activity against human UACC-257 cells assessed as cell growth inhibition at 10 uM incubated for 24 hrs by sulforhodamine B assay; format: functional; conditions: read-out: GI

SMILES: COc1ccc(OC)c(-c2nc(SCC(=O)c3ccc(Br)cc3)nc(Nc3ccc(S(N)(=O)=O)cc3)c2C#N)c1
- inhibition of growth at 10 µM (HCT-15): 77.9%
- Activity (MCF7 [1]): 7.15%
- IC50 (T47D): 2.4 µM
- Ki (Carbonic anhydrase 9): 0.0868 µM
- inhibition of growth at 10 µM (RXF 393): 82.7%
- inhibition of growth at 10 µM (OVCAR-4): 42.6%
- inhibition of growth at 10 µM (RPMI-8226): 48.8%
- inhibition of growth at 10 µM (OVCAR-3): 49.4%
- Activity (MDA-MB-231 [2]): 0.48%
- Activity (MDA-MB-231 [3]): 87.15%
- inhibition of growth at 10 µM (NCI/ADR-RES): 25.6%
- inhibition of growth at 10 µM (U-251): 62.4%
- inhibition of growth at 10 µM (EKVX): 36.3%
- inhibition of growth at 10 µM (MCF7 [4]): 71.1%
- inhibition of growth at 10 µM (MOLT-4): 71.5%
- inhibition of growth at 10 µM (NCI-H460): 79.2%
- inhibition of growth at 10 µM (LOX IMVI): 67.4%
- inhibition of growth at 10 µM (MDA-MB-468): 56.1%
- inhibition of growth at 10 µM (CCRF-CEM): 64.7%
- inhibition of growth at 10 µM (NCI-H522): 52%
- inhibition of growth at 10 µM (HL-60): 74.1%
- Activity (MDA-MB-231 [5]): 30.07%
- inhibition of growth at 10 µM (HCT-116): 84.6%
- inhibition of growth at 10 µM (NCI-H23): 41.6%
- inhibition of growth at 10 µM (HCC 2998): 29.1%
- inhibition of growth at 10 µM (SK-MEL-5): 44%
- Activity (MDA-MB-231 [6]): 39.7%
- inhibition of growth at 10 µM (SK-MEL-28): 42.3%
- IC50 (MCF7 [7]): 2.5 µM
- inhibition of growth at 10 µM (IGROV-1): 45.3%
- Activity (MDA-MB-231 [8]): 7.18%
- inhibition of growth at 10 µM (HOP-62): 51.6%
- IC50 (SK-OV-3): 29.9 µM
- inhibition of growth at 10 µM (SF-268): 43.3%
- IC50 (MDA-MB-231 [9]): 2.4 µM
- inhibition of growth at 10 µM (M14): 57.5%
- inhibition of growth at 10 µM (Hs-578T): 86.6%
- inhibition of growth at 10 µM (BT-549): 50.6%
- IC50 (COLO 205): 13.3 µM
- inhibition of growth at 10 µM (UACC-257): 43.1%
